Key:
[1] = Inhibition constant against mandelate racemase from Pseudomonas putida at pH 6.3
[2] = target: T1, Mandelate racemase (Pseudomonas putida, UniProt P11444); assay: Inhibition constant against Mandelate racemase from Pseudomonas putida at pH 7.5
T1 sequence (P11444 whole entry): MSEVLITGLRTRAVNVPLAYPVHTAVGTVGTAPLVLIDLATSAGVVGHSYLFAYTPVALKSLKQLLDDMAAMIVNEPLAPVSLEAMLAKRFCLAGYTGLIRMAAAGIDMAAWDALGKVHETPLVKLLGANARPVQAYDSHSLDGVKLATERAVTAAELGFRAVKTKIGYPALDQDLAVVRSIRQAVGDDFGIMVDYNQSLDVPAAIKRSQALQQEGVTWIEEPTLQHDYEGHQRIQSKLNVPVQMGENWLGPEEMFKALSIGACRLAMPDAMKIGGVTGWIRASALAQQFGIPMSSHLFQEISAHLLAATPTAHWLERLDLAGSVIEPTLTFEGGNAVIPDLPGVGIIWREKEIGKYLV

[3] = pKa2 (Dissociation constant) value (phosphonate group) was determined; format: physicochemical; conditions: read-out: pKa2
[4] = Inhibition constant against Mandelate racemase from Pseudomonas putida at pH 6.3

## O=P(O)(O)C(F)(F)c1ccccc1
[1]
  Ki: 1000 µM
[2]
  Ki: 12000 µM

## O=P(O)(O)C(O)c1ccccc1 (racemic) [ALPHA HYDROXY BENZYLPHOSPHONATE]
[2]
  Ki: 4.7 µM
[3]
  pKa: 6.89

## O=C(c1ccccc1)P(=O)(O)O [BENZOYLPHOSPHONATE]
[2]
  Ki: 300 µM
[3]
  pKa: 5.46

## O=P(O)(O)Cc1ccccc1 [BENZYLPHOSPHONIC ACID]
[2]
  Ki: 3600 µM

## O=P(O)(O)C(F)c1ccccc1 (racemic)
[2]
  Ki: 810 µM

## O=P(O)(O)[C@@H](O)c1ccccc1
[2]
  Ki: 34 µM
[3]
  pKa: 6.89

## O=P(O)(O)[C@H](F)c1ccccc1
[2]
  Ki: 530 µM
[4]
  Ki: 87 µM

## O=P(O)(O)[C@@H](F)c1ccccc1
[2]
  Ki: 1110 µM

## O=P(O)(O)[C@H](O)c1ccccc1
[2]
  Ki: 1.1 µM
[3]
  pKa: 6.89

— ChEMBL document CHEMBL1144964, “Inhibition of mandelate racemase by alpha-fluorobenzylphosphonates” (Bioorg Med Chem Lett, 2003)
